Results published in paper PMC7386655, “Spontaneous mutations that confer resistance to 2-deoxyglucose act through Hxk2 and Snf1 pathways to regulate gene expression and HXT endocytosis” (PLoS Genetics, 2020).

Target: T1, Hxk2 (Saccharomyces cerevisiae, UniProt P04807)
T1 construct: expressed from low-copy plasmid in hxk1Δ hxk2Δ glk1Δ yeast; whole cell extract; probably C-terminal 3xV5 tag
T1 sequence (P04807 2-486): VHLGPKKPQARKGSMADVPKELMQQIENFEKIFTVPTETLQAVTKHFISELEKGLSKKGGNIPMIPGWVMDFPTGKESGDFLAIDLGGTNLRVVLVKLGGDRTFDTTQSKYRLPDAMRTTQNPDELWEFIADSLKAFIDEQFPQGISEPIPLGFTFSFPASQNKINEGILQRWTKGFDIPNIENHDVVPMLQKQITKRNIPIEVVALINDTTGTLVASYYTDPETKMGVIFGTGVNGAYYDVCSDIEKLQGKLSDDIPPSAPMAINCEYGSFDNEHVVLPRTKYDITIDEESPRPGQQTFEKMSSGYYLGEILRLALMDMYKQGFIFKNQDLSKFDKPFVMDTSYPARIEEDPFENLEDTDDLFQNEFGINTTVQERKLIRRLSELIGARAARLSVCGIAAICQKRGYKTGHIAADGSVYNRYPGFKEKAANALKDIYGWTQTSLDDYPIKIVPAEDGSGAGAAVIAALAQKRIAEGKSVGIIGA
Test: G6PDH-coupled NADPH absorbance at […] nm, double reciprocal plot
Format: biochemical
Conditions: read-out: Km Glucose; 1 mM ATP, 10 mM MgCl2, pH 7.4; whole cell extract

Km: 190 µM
SMILES: OC[C@H]1OC(O)[C@H](O)[C@@H](O)[C@@H]1O (stereo partly shown) [glucose]
